From patent US20060100264A1, “3,3'-Diindolylmethane immune activating compositions” (priority 2004, published 2006) come the findings set out here.

Assay [1] deals with 4GAS-Luc reporter (four repeats of the consensus GAS element). The experiment in a line: 4GAS-Luc luciferase reporter in transiently transfected MCF-7 cells. The assay is classed as cell-based, human. The conditions noted are these: DIM 50 μM, IFNγ concentration dependent, maximum. Here is the method:
In a further experiment to examine whether the inducing effects of DIM are at the transcriptional level, the effect of DIM on activities of two luciferase reporter constructs, OAS-Luc (12) and 4GAS-Luc (13) was examined. OAS-Luc contains the promoter and 5′-flanking region (−972) of p69-OAS and GAS-Luc contains four repeats of the consensus GAS element. MCF-7 cells transiently transfected with these reporter constructs were treated with IFNγ, DIM, or a combination of both for 24 h. […] IFNγ induced transcriptional activity of this reporter in a concentration dependent manner to a maximum of about 1.8 fold, which is less than the response of the endogenous gene of about 5.0 fold. In marked contrast to the maximum effects of combined treatments of the inducers on endogenous gene expression (nearly 12-fold increase compared to vehicle treated cells), the reporter gene construct responded with less than a 3-fold increase over the controls.
Thus, treatment with DIM (50 μM) by itself again produced a 2 to 3-fold increase in activity of this reporter. IFNγ treatments, however, produced a robust concentration dependent increase in reporter activity to approximately 40-fold induction compared to vehicle treated controls. […]
A general note: A reporter such as luciferase makes a cellular process visible.

Another assay deals with IFNγ. The experiment in a line: IFNγ mRNA expression in DIM-treated MCF-7 cells (cDNA microarray, Northern blot, quantitative RT-PCR). The assay is classed as cell-based, human. The protocol:
Immune response activating effects of the DIM analogs are examined with cell-based assays for cytokine and cytokine receptor expression. […] We also used a sensitive sandwich ELISA assay to examine levels of IFNγ in medium from confluent cultures of MCF-7 cells that were treated for up to 3 days. DIM derivatives confirmed to have immune response activating activity in our reporter and ELISA assays are subsequently screened in a whole animal cytokine production and Y. enterocolitica infection studies, as described below in Examples VIII and IX.
An initial cDNA gene expression microarray screen of human breast cancer MCF-7 cells treated with DIM, followed by confirmation of results using Northern blots and quantitative RT-PCR, established the transcriptional activation of IFNγ, IFNγ receptor (IFNGR1), oligoadenylate-synthase (OAS) family member protein 69 (p69-OAS), and interferon-inducible protein 56 (p56), a protein closely related to OAS. […] Maximum induction for IFNγ, IFNGR1, p69-OAS and p56 were 4.6, 3.8, 3.2 and 4.0 fold, respectively.

A further assay has as its system TNF-α. The experiment in a line: Serum TNF-α by ELISA in mice after DIM. The conditions noted are these: 30 μg/kg DIM orally. The assay is classed as in vivo. The protocol: We firstly investigated the effect of unsubstituted DIM on the production of IL-6, G-CSF, IL-12, TNF-α and IFNγ. A groups of 3 mice was given 30 μg/kg of unsubstituted DIM orally and then sacrificed at 1, 3, 5, 8, and 24 h after drug challenge. Serum was collected, pooled, and assayed for IL-6, G-CSF, IL-12 and TNF-α by ELISA. […] DIM produced an increase in circulating levels of G-CSF and TNF-α with the 3 h time point being maximal. […] DIM also stimulated IL-12 and kinetics were slightly different since the increased levels were sustained for at least 24 h.
For orientation: An ELISA detects its analyte on a solid surface through an enzyme-linked reagent.

Take `c1ccc2c(Cc3c[nH]c4ccccc34)c[nH]c2c1` [DIM, 3,3′-Diindolylmethane]: in assay [1], the “Induction of 4GAS-Luc reporter activity compared to vehicle treated controls” value is on record as 2 to 3 fold. Besides, in the assay on IFNγ (MCF-7 cells treated with DIM), the “Maximum induction of IFNγ mRNA” value turned out to be 4.6 fold and the “Treatment time at which IFNγ expression was fully induced” value is recorded as 6 h. Besides, the “IFNγ mRNA level following 48 h of DIM treatment” value with IFNγ (MCF-7 cells, 48 h) was “returned to near control levels”. Besides, the “Time point of maximal circulating TNF-α” value in the assay on TNF-α is recorded as 3 h.
